Test results reported in patent US11440883B2, “Heterocyclic compound and use thereof” (Takeda Pharmaceutical Company Limited, priority 2017, dated 2022).

Key:
[1] = molecular target: T1, human orexin type 2 receptor (Homo sapiens, UniProt O43614); assay: Measurement of orexin type 2 receptor agonist activity (Fluo-4 calcium fluorescence, FDSS); format: cell-based; details: 3 μM test compound; CHO cells expressing human OX2 receptor; DMSO = 0%, orexin A (human) = 100%
T1 construct: expressed in transfected cells
T1 sequence (O43614 1-444): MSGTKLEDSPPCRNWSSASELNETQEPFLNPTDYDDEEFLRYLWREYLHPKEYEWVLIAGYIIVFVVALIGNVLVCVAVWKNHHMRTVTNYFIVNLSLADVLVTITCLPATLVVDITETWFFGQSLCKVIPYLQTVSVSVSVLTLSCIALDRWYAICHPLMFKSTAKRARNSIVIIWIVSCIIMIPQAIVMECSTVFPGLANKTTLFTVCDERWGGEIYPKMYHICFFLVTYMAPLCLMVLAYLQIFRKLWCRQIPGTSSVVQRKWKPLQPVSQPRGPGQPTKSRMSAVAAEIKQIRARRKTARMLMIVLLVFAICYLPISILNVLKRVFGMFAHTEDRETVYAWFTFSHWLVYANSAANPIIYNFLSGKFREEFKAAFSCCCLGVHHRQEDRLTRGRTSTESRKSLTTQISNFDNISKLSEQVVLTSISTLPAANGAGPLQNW
Source text: To obtain a cell clone stably expressing human orexin type 2 receptor, human orexin type 2 receptor cDNA was inserted into pcDNA3.1(+) plasmid vector (Invitrogen), and a plasmid DNA for expression of human orexin type 2 receptor (pcDNA3.1(+)/hOX2R) was cloned. The plasmid DNA was introduced into CHO-dhfr cell by an electroporation method, and human orexin type 2 receptor expressing clone cells were obtained by limiting dilution method by using G418 drug resistance as a selection marker.
CHO cells forcibly expressing human OX2 receptor were seeded in each well of 384 well black transparent bottom plate (BD Falcon) at 7,500 cells/well, and cultured for one day in a 5% CO2 incubator at 37° C. […] A test compound prepared by diluting with assay buffer B (HBSS, 20 mM HEPES, 0.1% BSA) was added at 10 μL/well, and the fluorescence value was measured by FDSSUCELL (Hamamatsu Photonics K.K.) every one sec for 1 min, and thereafter every two sec for 1 min 40 sec. The activity (%) of the test compound was calculated assuming that variation in the fluorescence value when DMSO was added instead of the test compound was 0%, and variation in the fluorescence value when orexin A (human) (PEPTIDE INSTITUTE, INC.) was added at the final concentration of 10 nM was 100%.

cynomolgus monkeys = assay: Evaluation of wake-promoting effects in cynomolgus monkeys (EEG/EMG/EOG); format: in vivo, cynomolgus monkey; details: Macaca fascicularis, sc, at ZT12, time spent in wakefulness for 4 h after administration, male cynomolgus monkeys, read-out: Wakefulness time (% of vehicle treatment) (Mean, n = 1-2)

## CCNC(=O)N1CCC[C@H](NS(C)(=O)=O)[C@@H]1Cc1cccc(O[Si](C(C)C)(C(C)C)C(C)C)c1 (relative stereo) [Example 17, cis-N-ethyl-3-((methylsulfonyl)amino)-2-(3-((triisopropylsilyl)oxy)benzyl)piperidine-1-carboxamide]
[1]
  OX2R agonist activity (3 μM, %): 29%

## CCS(=O)(=O)N[C@H]1CCN(C(=O)C(C)(C)O)[C@H]1Cc1cccc(-c2cccc(F)c2)c1F [Example 482, N-((2S,3S)-2-((2,3′-difluorobiphenyl-3-yl)methyl)-1-(2-hydroxy-2-methylpropanoyl)pyrrolidin-3-yl)ethanesulfonamide]
Cynomolgus monkeys
  response vs control in vivo at 1 mg/kg: 281%

## CC(C)(O)C(=O)N1CC[C@H](NS(C)(=O)=O)[C@@H]1Cc1cccc(-c2cc(F)cc(F)c2)c1F [Example 483, N-((2S,3S)-1-(2-hydroxy-2-methylpropanoyl)-2-((2,3′,5′-trifluorobiphenyl-3-yl)methyl)pyrrolidin-3-yl)methanesulfonamide]
Cynomolgus monkeys
  response vs control in vivo at 1 mg/kg: 359%

## CCS(=O)(=O)N[C@H]1CCN(C(=O)C(C)(C)O)[C@H]1Cc1cccc(-c2cc(F)cc(F)c2)c1F [Example 484, N-((2S,3S)-1-(2-hydroxy-2-methylpropanoyl)-2-((2,3′,5′-trifluorobiphenyl-3-yl)methyl)pyrrolidin-3-yl)ethanesulfonamide]
Cynomolgus monkeys
  response vs control in vivo at 1 mg/kg: 492%
